Measurements taken from US11576913B2 (priority 2018, dated 2023).
Like-named read-outs stand apart in the source and are kept apart here.

Legend:
[1] = format: in vivo, human; conditions: Compound (1C) tablets administered orally
Text: The comparators in an abuse potential study are typically controlled substances from the same pharmacologic class as the investigational drug. However, Compound (1C) is a novel drug class for which no controlled substances/drugs of abuse are available for comparison. […] There was no evidence of other effects of interest to abusers, such as perceptual disturbances or stimulation. […] Placebo control was used to establish the frequency and magnitude of changes in clinical endpoints that may occur in the absence of active treatment as well as to minimize subject and investigator bias.

[2] = tested on: healthy, non-dependent, recreational sedative users; test: Human abuse potential study, adverse events and tolerability; format: in vivo; conditions: for Amnesia / Ataxia / Diplopia / Dizziness / Euphoric mood / Headache / Hiccups / Nausea / Somnolence / Vision blurred: N = 50
Protocol: Adverse events were coded to MedDRA terms. Data for AEs were analyzed using the treatment-emergent signs and symptoms (TESS) philosophy. Treatment-emergent signs and symptoms are defined as AEs that: • Emerge during treatment, having been absent at pretreatment; or • Reemerge during treatment, having been present at pretreatment but stopped prior to treatment; or • Worsen in intensity during treatment relative to the pretreatment state, when the AE is continuous.
Subjects were counted only once in the incidence count for a specific MedDRA Preferred Term, although a MedDRA Preferred Term might be reported more than once for a particular subject. Separate summaries will be provided for Treatment-emergent AEs (“TEAEs”) by maximum intensity (mild, moderate, severe) and relationship (yes, no) to study drug. A TEAE was considered related to study drug if the investigator reported the event to be “definitely, probably, possibly, or unlikely” related to treatment on the CRF.

clinical = format: in vivo, human; conditions: for Fe, Mean (CV %): unchanged in urine; for CLr, Mean / Tmax / half-life / AUC / CL renal / Cmax: human, in vivo; for half-life: read-out: T1/2, Mean (CV %) (converted); for AUC / Cmax: Mean (CV %); for CL renal: CLr, Mean
Text: This study was designed to evaluate the safety and pharmacokinetic (“PK”) interactions between Compound (1C) and alcohol in healthy subjects. […] The study was designed as a single-site, randomized, single-dose, double-blinded, placebo-controlled crossover study, and 46 subjects completed treatment as part of the study.
The dose of alcohol at 0.7 g/kg was consistent with the NIAAA definition of binge drinking, which can lead to blood alcohol concentration of approximately 0.08 g/dL. In the United States this is generally considered the level at which a person is legally impaired. In addition, such dose level has been studied in previously completed relevant alcohol interaction study in which the safety and tolerability were established in a similar population (Hong Sun et al. “Psychomotor effects, pharmacokinetics and safety of the orexin receptor antagonist suvorexant administered in combination with alcohol in healthy subjects.” Journal of Psychopharmacology 2015, Vol. 29(11) 1159-1169).
Briefly, blinded alcoholic beverage or placebo beverage was consumed over a 20- to 30-minute period. The beverage was divided into 3 parts, with approximately ⅓ administered (consumed to completion by subject at their own pace) every 10 minutes, […], in order to control for drinking rate.
Subjects swallowed Compound (1C) with the alcoholic beverage, with small sips of water as needed if the subject could not drink the alcohol quickly enough to consume the alcohol. […] A mouthwash with water was provided before and at the end of dosing. A mouth check was performed to verify that the Compound (1C) doses administered are swallowed. Vital signs and oxygen saturation, SpO2, (FIG. 26) were collected for evaluation by the investigator.
AUCt Area under the plasma concentration-time curve from hour 0 to the last measurable plasma concentration, calculated by the linear trapezoidal method.
AUCinf Area under the plasma concentration-time curve extrapolated to infinity:
Where Ct is the last measurable plasma concentration and […] is the apparent terminal phase rate constant;
Cmax Maximum observed plasma concentration
Tmax Time to maximum plasma concentration
T1/2 Apparent terminal phase half-life: T1/2=(ln2)/λz

In the case of `O=C(O)c1nc2ccccc2n([C@H]2C[C@H]3CCC[C@@H](C2)N3C2CC3CCCC(C3)C2)c1=O` (stereo partly shown) [Compound (1C)], the “Time to maximum concentration” value [1] was “approximately 1.5 hours”, the “AE profile compared with triazolam” value ([2]; 1 mg) was “more preferable AE profile than triazolam” and the Amnesia ([2]; 1 mg) was 0 n (%). The Ataxia ([2]; 1 mg) was 1 (2) n (%), the Diplopia ([2]; 1 mg) was 0 n (%) and the Dizziness ([2]; 1 mg) was 2 (4) n (%). The Euphoric mood ([2]; 1 mg) was 0 n (%), the Headache ([2]; 1 mg) was 5 (10) n (%) and the Hiccups ([2]; 1 mg) was 0 n (%). For the same compound, the Nausea ([2]; 1 mg) was 1 (2) n (%), the Somnolence ([2]; 1 mg) was 20 (40) n (%) and the Vision blurred ([2]; 1 mg) was 0 n (%). For the same compound, the “AE profile compared with triazolam” value ([2]; 6 mg) was “AE profile than triazolam, and Compound (1C) at 6 and 10 mg doses had similar profiles as triazolam”, the “certain AE results (ataxia, hiccups, amnesia, diplopia) compared with triazolam at therapeutic doses” value ([2]; 6 mg (supratherapeutic dose)) was “superior to triazolam” and the Amnesia ([2]; 6 mg) was 0 n (%). The Ataxia ([2]; 6 mg) was 7 (14) n (%), the Diplopia ([2]; 6 mg) was 0 n (%) and the Dizziness ([2]; 6 mg) was 3 (6) n (%). The Euphoric mood ([2]; 6 mg) was 1 (2) n (%), the Headache ([2]; 6 mg) was 2 (4) n (%) and the Hiccups ([2]; 6 mg) was 0 n (%). For the same compound, the Nausea ([2]; 6 mg) was 2 (4) n (%), the Somnolence ([2]; 6 mg) was 45 (90) n (%) and the Vision blurred ([2]; 6 mg) was 2 (4) n (%). The “AE profile compared with triazolam” value ([2]; 10 mg) was “AE profile than triazolam, and Compound (1C) at 6 and 10 mg doses had similar profiles as triazolam”, the “certain AE results (ataxia, hiccups, amnesia, diplopia) compared with triazolam at therapeutic doses” value ([2]; 10 mg (supratherapeutic dose)) was “superior to triazolam” and the Amnesia ([2]; 10 mg) was 0 n (%). For the same compound, the Ataxia ([2]; 10 mg) was 13 (26) n (%), the Diplopia ([2]; 10 mg) was 2 (4) n (%) and the Dizziness ([2]; 10 mg) was 5 (10) n (%). For the same compound, the Euphoric mood ([2]; 10 mg) was 1 (2) n (%), the Headache ([2]; 10 mg) was 2 (4) n (%) and the Hiccups ([2]; 10 mg) was 0 n (%). For the same compound, the Nausea ([2]; 10 mg) was 2 (4) n (%), the Somnolence ([2]; 10 mg) was 47 (94) n (%) and the Vision blurred ([2]; 10 mg) was 3 (6) n (%). For the same compound, the “safety and tolerability” value ([2]; doses 1, 6 and 10 mg) was “well tolerated”, the “Fe, Mean (CV %)” value (clinical; 2 mg + EtOH (0.7 g/kg)) was 84 (33) % and the “Urine Fe, Mean” value (clinical; 2 mg Alone (N = 48)) was 80.7%. For the same compound, the “Fe, Mean (CV %)” value (clinical; 2 mg alone) was 81 (12) %, the “PK profile of ethanol on co-administration of Compound (1C)” value (clinical; 2 mg or 6 mg with ethanol vs ethanol with placebo, FIG. 24) was “not affected” and the “Urine Fe, Mean” value (clinical; 2 mg with Alcohol (N = 46)) was 83.6%. The “Fe, Mean (CV %)” value (clinical; 6 mg + EtOH (0.7 g/kg)) was 80 (20) %, the “Urine Fe, Mean” value (clinical; 6 mg Alone (N = 47)) was 80.8% and the “Fe, Mean (CV %)” value (clinical; 6 mg alone) was 81 (10) %. For the same compound, the “Urine Fe, Mean” value (clinical; 6 mg with Alcohol (N = 48)) was 79.6%, the “effect of alcohol on the PK profile of Compound (1C)” value (clinical; 2 and 6 mg with 0.7 g/kg ethanol) was “does not alter the PK profile” and the “CLr, Mean” value (clinical; 2 mg) was 12.7 L/h. For the same compound, the Tmax (clinical; 2 mg) was 1.7 h, the half-life (clinical; 2 mg + EtOH (0.7 g/kg)) was 3.9 h and the half-life (clinical; 2 mg, 2 mg alone) was 4 h. The AUC (clinical; 2 mg) was 130 ng·h/mL, the CL renal (clinical; 2 mg) was 210 mL/min and the Cmax (clinical; 2 mg) was 28.2 ng/mL. The “CLr, Mean” value (clinical; 6 mg) was 12.3 L/h, the Tmax (clinical; 6 mg) was 1.9 h and the half-life (clinical; 6 mg + EtOH (0.7 g/kg)) was 4.5 h. It also gave a half-life (clinical; 6 mg, 6 mg alone) of 4.5 h, an AUC (clinical; 6 mg) of 402 ng·h/mL and a CL renal (clinical; 6 mg) of 198 mL/min. For the same compound, the Cmax (clinical; 6 mg) was 78.3 ng/mL.
